Results reported in article PMC7116364 (Science translational medicine, 2020).
Several values for one entry are separate records, joined by “and”; a condition that tells them apart may be missing. Equal values may be shown once. Read-outs that look alike come from different tables or passages of the source.

Key:
E. ocellatus venom [1] = tested on: E. ocellatus venom; design: species or system male CD-1 mice; conditions: mouse, in vivo, ip
[2] = tested on: E. carinatus (India) venom; assay: coincubation model of envenoming; design: species or system male CD-1 mice; conditions: mouse, in vivo, iv
[3] = tested on: venom-induced plasma clotting (Echis venoms, calcium-independent); type: biochemical; conditions: for IC50: read-out: IC50, venom-induced plasma clotting in the absence of calcium
[4] = tested on: cleavage of recombinant human prothrombin by saw-scaled viper venom; type: biochemical, Echis; conditions: lower dose (150 µM)
[5] = tested on: venom SVMPs from six saw-scaled vipers; type: biochemical; conditions: read-out: IC50, neutralization of venom SVMP activity
E. pyramidum venom [6] = assay: coincubation model of envenoming; design: species or system male CD-1 mice; conditions: mouse, in vivo, iv
[7] = tested on: E. ocellatus venom (Nigeria); assay: coincubation model of envenoming; design: species or system male CD1 mice; conditions: mouse, in vivo, iv
[8] = tested on: procoagulant activity of six Echis venoms; type: biochemical; conditions: for IC50: read-out: IC50, neutralization of venom-induced plasma clotting
[9] = tested on: Indian E. carinatus venom; type: biochemical; conditions: read-out: IC50, plasma assay
[10] = tested on: serine protease activity of fractionated E. ocellatus venom; type: biochemical
E. ocellatus venom [11] = assay: challenge and treat model using oral DMPS, E. ocellatus; design: species or system male CD-1 mice; conditions: mouse, in vivo
[12] = rabbits and dogs, intravenous or oral administration for 10-26 weeks; cited from earlier work
[13] = humans, cited from earlier work
E. ocellatus venom [14] = tested on: E. ocellatus venom; design: species or system mice; conditions: mouse, in vivo, iv
E. pyramidum venom [15] = tested on: E. pyramidum venom; design: species or system male CD-1 mice; conditions: mouse, in vivo, ip
[16] = rats and rabbits, first 6 h, after oral dosing; cited from earlier work
[17] = tested on: PLA2 activity of fractionated E. ocellatus venom; type: biochemical
[18] = tested on: venoms of E. pyramidum and E. carinatus; design: species or system mice; conditions: mouse, in vivo, iv
[19] = drug-only / antivenom-only control groups; conditions: 600 µg DMPS orally, 24 h
E. ocellatus venom [20] = assay: neutralization of local hemorrhage; design: species or system male CD-1 mice; conditions: mouse, in vivo
[21] = tested on: E. ocellatus, E. pyramidum and E. carinatus venoms; design: species or system male CD-1 mice; conditions: mouse, in vivo, ip
[22] = tested on: E. carinatus (India) venom; design: species or system male CD-1 mice; conditions: mouse, in vivo, ip

| SMILES | survival to the end of the experiment (24 h) (E. ocellatus venom [1]) | time of death (E. ocellatus venom [1]) | protection against lethality [2] | IC50 [3] | protection of prothrombin against cleavage, comparison [4] | IC50 [5] | protection against lethality (E. pyramidum venom [6]) | plasma thrombin-antithrombin (TAT) concentrations [7] | survival [7] | IC50 [8] | also measured |
| --- | --- | --- | --- | --- | --- | --- | --- | --- | --- | --- | --- |
| OCC(S)CS (stereo not shown) [dimercaprol] | two experimental animals also survived | 111 min and 125 min and 150 min | complete protection | 490 to 14000 nM | outperformed DMPS and DMSA | 40 to 180 nM | two deaths | 40 to 50 ng/mL | survived until the end of the experiment (6 h) | 140 to 1360 nM | – |
| O=C(O)CN(CCN(CC(=O)O)CC(=O)O)CC(=O)O [EDTA] | – | – | – | 4890 to 253000 nM | outperformed DMPS and DMSA | 2250 to 4430 nM | – | – | – | – | inhibition of venom-induced plasma clotting in the absence of calcium ([3]; no calcium): effective at inhibiting venom-induced plasma clotting; inhibition of venom activity in the plasma assay [8]: did not extensively inhibit venom activity; IC50 [9]: 2180 nM |
| O=S(=O)(O)CC(S)CS (stereo not shown) [DMPS, 2,3-dimercapto-1-propanesulfonic acid] | two of the five experimental animals survived | 756 to 1440 min and 756 min | two deaths | 2180 to 7550 nM | – | 1640 to 3400 nM | complete protection | 170 to 252 ng/mL | survived until the end of the experiment (6 h) | 1180 to 27600 nM | inhibition of serine protease activity [10]: unable to inhibit; echinocytes in blood films (E. ocellatus venom [11]): markedly reduced the number of echinocytes; prolonged animal survival compared to the venom-only controls (E. ocellatus venom [11]): ~ 10 h; survival at the end of the experiment (24 h) (E. ocellatus venom [11]): 2 of 5; changes in the concentrations of iron or calcium [12]: no significant changes in the concentrations of iron or calcium; time to peak plasma concentrations ([13]; after ingestion): 3 to 4 h; time at which the drug can be detected in the plasma ([13]; after oral administration): 30 to 45 min; clinical half-life [13]: ~ 20 h; RBC morphology (E. ocellatus venom [14]): fully rescued normal RBC morphology; prolonged animal survival compared to the venom-only controls (E. ocellatus venom [1]): ~ 17 h; time of death [2]: 89 min and 110 min; survival for the duration of the experiment (24 h) (E. pyramidum venom [15]): two survived for the duration of the experiment (24 h); fraction excreted in the urine / eliminated within 6 h [16]: 85-89% and > 85%; inhibition of PLA2 activity [17]: unable to inhibit; RBC morphology [18]: some protection; signs of toxicity (survival, behavioral and post-mortem observations) [19]: did not display any signs of toxicity in mice; hemorrhagic lesion size (average) (E. ocellatus venom [20]): 1.43 mm^2; TAT concentrations, animals not protected by DMPS [21]: > 400 ng/mL; TAT concentrations, animals that survived for the duration of the experiment (average) [21]: ~ 200 ng/ml; effect on lethality compared with the venom-only control [22]: slight delay in lethality |
| O=C(O)[C@@H](S)[C@@H](S)C(=O)O [DMSA, dimercaptosuccinic acid] | – | – | – | – | – | 19300 to 35100 nM | – | 300 to 666 ng/mL | three of the five experimental animals survived | 18800 to 147000 nM | – |
